Source: the NIST ThermoML archive (doi:10.1021/je030165y)
± gives the expanded uncertainty stated by the source.

Test: refractive index (Na D-line) (dimensionless)
Settings: 298.15 K; 101.33 kPa; Liquid; Standard Abbe refractometry

Row | refractive index | Compound
1 | 1.4236 ± 0.0008 | C1CCCCC1 [cyclohexane]
2 | 1.3783 ± 0.0008 | COCCOC [1,2-dimethoxyethane]
3 | 1.3722 ± 0.0007 | CCCCCC [hexane]

Row | Compound | refractive index
4 | Cc1ccccc1 [toluene] | 1.4941 ± 0.0008
